{"source": "ChEMBL document CHEMBL1123725", "about": "“Effect of reductive alkylation of D-lysine in position 6 on the histamine-releasing activity of luteinizing hormone-releasing hormone antagonists” (1987)", "system": "rat peritoneal mast cells (Rattus norvegicus)", "experiment": "In vitro histamine-release activity by using peritoneal cells from male Sprague-Dawley rats in a standard assay"}
{"compound": "CC(=O)NC(Cc1ccc2ccccc2c1)C(=O)NC(Cc1ccccc1)C(=O)NC(Cc1ccccc1)C(=O)N[C@@H](CO)C(=O)N[C@@H](Cc1ccc(O)cc1)C(=O)NC(Cc1c[nH]c2ccccc12)C(=O)NC(Cc1ccccc1)C(=O)N[C@@H](CC(C)C)C(=O)N1CCC[C@@H]1C(=O)NC(C)C(N)=O", "note": "(stereo in doubt)", "values": [{"measurement": "ED50", "result": 46, "unit": "mg/L"}]}
